One may read the IC50 as the concentration that inhibits the measured activity by half. Low values mean greater potency, high ones weaker potency.

For test [1], the system named is MDA-MB-435. The test can be described thus: Antiproliferative activity against human MDA-MB-435 cells assessed as growth inhibition at 10 uM after 72 hrs by SRB assay. Format: functional. The following applies: MDA-MB-435, 72 h, read-out: GI.
Test [2] concerns MDA-MB-231. In words: Antiproliferative activity against human MDA-MB-231 cells assessed as growth inhibition at 10 uM after 72 hrs by SRB assay. Format: functional. The note with it: MDA-MB-231, 72 h, read-out: GI. For orientation: In SRB staining, fixed cells bind dye roughly in proportion to their protein.
The species entered for the next test is Bos taurus. The test can be described thus: Inhibition of calf thymus topoisomerase 1 assessed as relaxation of pBR322 DNA at 100 uM after 30 mins by agarose gel electrophoresis.
The next test deals with PC-3. The test can be described thus: Antiproliferative activity against human PC3 cells after 72 hrs by SRB assay. Format: functional, cell-based. The following applies: PC-3, 72 h.
Test [3] relates to MDA-MB-231. The test can be described thus: Inhibition of topoisomerase in human MDA-MB-231 cells assessed as ATM phosphorylation at Ser1981 residue at 10 uM after 24 hrs by western blot analysis. Format: cell-based. (In general: In western blotting, separated proteins are transferred to a membrane and probed.)
The target of test [4] is DNA topoisomerase 2-alpha (Homo sapiens) (UniProt P11388). The following applies: 100 uM.
Chain of DNA topoisomerase 2-alpha (Homo sapiens) (P11388 whole entry): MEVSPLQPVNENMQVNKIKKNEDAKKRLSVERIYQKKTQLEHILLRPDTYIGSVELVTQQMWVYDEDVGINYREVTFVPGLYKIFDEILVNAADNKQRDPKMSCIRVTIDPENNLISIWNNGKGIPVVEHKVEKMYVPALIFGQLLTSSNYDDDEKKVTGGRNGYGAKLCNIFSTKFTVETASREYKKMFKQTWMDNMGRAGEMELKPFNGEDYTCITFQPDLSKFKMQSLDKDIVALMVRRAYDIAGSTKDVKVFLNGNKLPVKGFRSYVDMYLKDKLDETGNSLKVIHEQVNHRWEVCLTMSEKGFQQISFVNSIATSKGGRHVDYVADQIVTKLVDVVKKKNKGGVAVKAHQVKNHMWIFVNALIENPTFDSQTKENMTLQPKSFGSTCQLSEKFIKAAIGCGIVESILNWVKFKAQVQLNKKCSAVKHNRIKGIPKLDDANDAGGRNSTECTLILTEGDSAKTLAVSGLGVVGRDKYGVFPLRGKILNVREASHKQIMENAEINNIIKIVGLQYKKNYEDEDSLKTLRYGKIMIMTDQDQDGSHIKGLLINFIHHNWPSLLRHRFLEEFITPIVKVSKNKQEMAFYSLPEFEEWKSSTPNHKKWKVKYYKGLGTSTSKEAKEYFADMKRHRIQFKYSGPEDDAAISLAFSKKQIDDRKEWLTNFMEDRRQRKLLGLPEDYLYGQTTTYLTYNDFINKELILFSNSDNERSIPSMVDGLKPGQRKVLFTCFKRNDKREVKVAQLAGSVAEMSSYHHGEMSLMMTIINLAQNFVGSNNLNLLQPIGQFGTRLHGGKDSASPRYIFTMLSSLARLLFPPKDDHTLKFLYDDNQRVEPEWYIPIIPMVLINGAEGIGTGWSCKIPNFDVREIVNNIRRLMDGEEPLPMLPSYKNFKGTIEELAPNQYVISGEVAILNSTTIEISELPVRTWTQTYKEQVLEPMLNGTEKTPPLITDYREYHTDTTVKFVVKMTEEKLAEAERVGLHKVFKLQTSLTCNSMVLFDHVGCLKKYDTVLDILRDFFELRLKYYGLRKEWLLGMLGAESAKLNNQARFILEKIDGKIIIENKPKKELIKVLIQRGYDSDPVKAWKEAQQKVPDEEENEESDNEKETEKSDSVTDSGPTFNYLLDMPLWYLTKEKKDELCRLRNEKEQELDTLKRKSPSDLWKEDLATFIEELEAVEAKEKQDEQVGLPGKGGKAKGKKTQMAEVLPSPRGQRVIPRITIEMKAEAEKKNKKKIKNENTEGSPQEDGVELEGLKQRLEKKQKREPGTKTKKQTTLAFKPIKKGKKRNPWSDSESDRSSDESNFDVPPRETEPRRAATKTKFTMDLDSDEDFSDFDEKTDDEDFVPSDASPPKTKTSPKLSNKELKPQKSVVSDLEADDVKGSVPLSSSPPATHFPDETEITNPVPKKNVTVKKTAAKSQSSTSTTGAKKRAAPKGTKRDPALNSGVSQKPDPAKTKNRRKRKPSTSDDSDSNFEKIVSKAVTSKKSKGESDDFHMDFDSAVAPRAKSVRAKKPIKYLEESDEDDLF
Description: Inhibition of human recombinant topoisomerase 2 alpha assessed as topoisomerase poison activity by measuring generation of linear DNA using circular supercoiled DNA at 100 uM by agarose gel electrophoresis
In test [5] the test system is MDA-MB-231. In words: Antiproliferative activity against human MDA-MB-231 cells after 72 hrs by SRB assay. The following applies: MDA-MB-231, 72 h. Format: functional, cell-based.
The test system of the next test is HepG2. In words: Antiproliferative activity against human HepG2 cells after 72 hrs by SRB assay. Format: functional, cell-based. The note with it: HepG2, 72 h.
The target of test [6] is DNA topoisomerase 2-alpha (Homo sapiens) (UniProt P11388). In words: Inhibition of human recombinant topoisomerase 2alpha assessed as relaxation of pBR322 DNA at 100 uM after 30 mins by agarose gel electrophoresis.
Test [7] concerns MDA-MB-435. In words: Antiproliferative activity against human MDA-MB-435 cells after 72 hrs by SRB assay. The class given is functional, cell-based. The following applies: MDA-MB-435, 72 h.
Test [8] concerns Nucleic Acid. The test can be described thus: Induction of DNA intercalation in Escherichia coli pBR322 plasmid DNA assessed as supercoiled DNA formation at 100 uM after 1 hr by agarose gel electrophoresis. Format: nucleic-acid assay.
Test [9] concerns Nucleic Acid. In words: Induction of DNA intercalation in Escherichia coli pBR322 plasmid DNA assessed as supercoiled DNA formation at 10 ug/ml after 1 hr by agarose gel electrophoresis. Format: nucleic-acid assay.

Activity calls are given as the source filed them. No cut-off for these calls is given here.

On to `Oc1ccc2oc(-c3ccc4c(c3)OCO4)cc2c1`, for which the results for the inhibition of growth at 10 µM with MDA-MB-435 [1] and in the test on MDA-MB-231 [2] were 11.2% and 3.6%, respectively.
Consider `CC[C@@]1(O)C(=O)OCc2c1cc1n(c2=O)Cc2cc3cc(O)ccc3nc2-1`, for which, in the test listed under Bos taurus, the inhibition entry is “Active”.
For `COc1cc([C@@H]2c3cc4c(cc3[C@@H](O[C@@H]3O[C@@H]5CO[C@@H](C)O[C@H]5[C@H](O)[C@H]3O)[C@H]3COC(=O)[C@H]23)OCO4)cc(OC)c1O` [ETOPOSIDE], the IC50 was determined as 1 µM with PC-3, 3.6 µM in the test on MDA-MB-231 [5], 30 µM with HepG2 and 1.7 µM in the test with MDA-MB-435 [7]. The inhibition of growth at 10 µM with MDA-MB-435 [1] worked out at 96.1%; in the test on MDA-MB-231 [2], 71%. Also, the inhibition entry (with MDA-MB-231 [3]; in [4]; in test [6]) was “Active” each time.
As to `OCc1ccc(-c2cc3cc(O)ccc3o2)cc1`, the inhibition of growth at 10 µM with MDA-MB-435 [1] is 42.6%; in the test with MDA-MB-231 [2] it was 10.6%.
Regarding `COc1cccc2c1C(=O)c1c(O)c3c(c(O)c1C2=O)C[C@@](O)(C(=O)CO)C[C@@H]3O[C@H]1C[C@H](N)[C@H](O)[C@H](C)O1`, the outcome with Nucleic Acid [8] was Active.
Take `Oc1ccc2cc(-c3ccc4c(c3)OCO4)ccc2c1`: the IC50 in the test with PC-3 is 10.8 µM; with MDA-MB-231 [5], 8.5 µM; in the test with HepG2 it was 2.6 µM; in the test with MDA-MB-435 [7] it was 3.9 µM. In addition, the inhibition of growth at 10 µM was 86.9% with MDA-MB-435 [1] and 66.3% in the test with MDA-MB-231 [2].
Consider `Oc1ccc(-c2cc3cc(O)ccc3o2)cc1`, for which the inhibition of growth at 10 µM with MDA-MB-435 [1] turned out to be 13.8%; in the test on MDA-MB-231 [2] it was 29.5%.
In the case of `O=[N+]([O-])c1cccc(-c2cc3cc([N+](=O)[O-])ccc3o2)c1`, the values for the inhibition of growth at 10 µM in the test on MDA-MB-435 [1] and with MDA-MB-231 [2] were 4.3% and 17.3%, respectively.
Consider `CC[N+](C)(CC)CCC[n+]1c(-c2ccccc2)c2cc(N)ccc2c2ccc(N)cc21`, for which the result in the test on Nucleic Acid [9] was Active.
